Measured values reported in the NIST ThermoML archive (doi:10.1021/je8001255).

Assay: an = ratio of the nth substance listed, in mol/kg
Conditions: 100 kPa, Liquid; for electrical conductivity: Alternating current cell with electrodes

O=S(=O)([O-])[O-].[Mn+2] [manganese(II) sulfate] + O
Conditions | electrical conductivity, 278.15 K [S/m] | electrical conductivity, 283.15 K [S/m] | electrical conductivity, 288.15 K [S/m] | electrical conductivity, 293.15 K [S/m] | electrical conductivity, 298.15 K [S/m] | electrical conductivity, 303.15 K [S/m] | electrical conductivity, 308.15 K [S/m] | mass density, 298.15 K [kg/m3]
a1 = 0.00499 | 0.0524 | 0.06 | 0.068 | 0.0761 | 0.0844 | 0.0928 | 0.101 | 997.79
a1 = 0.00999 | 0.0922 | 0.106 | 0.119 | 0.134 | 0.148 | 0.162 | 0.177 | 998.55
a1 = 0.01997 | 0.16 | 0.183 | 0.207 | 0.231 | 0.255 | 0.279 | 0.303 | 1000.02
a1 = 0.05028 | 0.333 | 0.38 | 0.428 | 0.477 | 0.526 | 0.575 | 0.622 | 1004.5
a1 = 0.1005 | 0.575 | 0.656 | 0.739 | 0.822 | 0.905 | 0.987 | 1.07 | 1011.91
a1 = 0.1991 | 1.01 | 1.15 | 1.29 | 1.44 | 1.58 | 1.72 | 1.86 | 1026.55
a1 = 0.3159 | 1.39 | 1.59 | 1.78 | 1.98 | 2.18 | 2.37 | 2.56 | 1044.23
a1 = 0.4963 | 1.93 | 2.2 | 2.47 | 2.75 | 3.03 | 3.3 | 3.57 | 1072.29
a1 = 0.7442 | 2.5 | 2.85 | 3.21 | 3.57 | 3.93 | 4.29 | 4.65 | 1112.53
a1 = 0.9865 | 2.95 | 3.36 | 3.79 | 4.22 | 4.65 | 5.08 | 5.5 | 1153.87
a1 = 1.208 | 3.07 | 3.51 | 3.97 | 4.44 | 4.91 | 5.38 | 5.85 | 1194.32
a1 = 1.384 | 3.1 | 3.57 | 4.04 | 4.53 | 5.03 | 5.52 | 6.02 | 1227.02
a1 = 1.653 | 2.98 | 3.44 | 3.93 | 4.43 | 4.95 | 5.46 | 5.98 | 1280.18
a1 = 1.826 | 2.78 | 3.25 | 3.72 | 4.21 | 4.72 | 5.23 | 5.75 | 1318.47
a1 = 2.082 | 2.41 | 2.84 | 3.29 | 3.76 | 4.25 | 4.74 | 5.24 | 1371.35
a1 = 2.189 | 2.19 | 2.6 | 3.02 | 3.47 | 3.93 | 4.41 | 4.89 | 1398.09
a1 = 2.434 | 1.6 | 1.93 | 2.28 | 2.66 | 3.06 | 3.48 | 3.9 | 1452.93
